Source: patent US20250228865A1, “COMPOUNDS FOR ENHANCING READ THROUGH OF GENES CONTAINING PREMATURE TERMINATION CODONS AND METHODS FOR MAKING AND USING THE SAME” (Sanofi US Services Inc., priority 2022, published 2025)

Columns and labels:
[1] = system: recombinant human CFTR carrying the premature stop codon (PTC) mutation G542X; assay: CFTR-PTC mutant translation readthrough, Nanoluc tagged CFTR luminescence (G542X cell line); format: cell-based; conditions: in combination with G418, G542X cell line; for CFTR G542X ACTIVITY Fold 10 μM G-418: fold over 10 μM G-418; for EC50: 16HBE cells
Method in brief: (§1)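 16HBE cells stably expressing Nanoluc-tagged human CFTR with G542X or R1162X, in medium with 3 μM VX-809, treated 48 h at 37 °C with compound (10-point, 2-fold, top 50 μM final) alone or with 10 μM G418. Live-cell Nanoluc luminescence normalised to a maximally effective G418 (125-250 μM).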

[2] = system: recombinant human CFTR carrying the premature stop codon (PTC) mutation R1162X; assay: CFTR-PTC mutant translation readthrough, Nanoluc tagged CFTR luminescence (R1162X cell line); format: cell-based; conditions: for CFTR R1162X ACTIVITY Fold 10 μM G-418: fold over 10 μM G-418, in combination with G418; for EC50: in combination with G418, 16HBE cells, read-out: CFTR R1162X ACTIVITY EC50
Method in brief: as §1

EC50 [1] [nM] | EC50 [2] [nM] | SMILES | CFTR G542X ACTIVITY Fold 10 μM G-418 [1] | CFTR R1162X ACTIVITY Fold 10 μM G-418 [2]
1000 to 10000 | 1000 to 10000 | O=C(O)C1CCN(c2ncc(OCc3c(Cl)cccc3C(F)(F)F)cn2)C1 (stereo not shown) | A′ (A′ = ≥10X) | B′ (B′ = ≥5X to <10X)
> 10000 | > 10000 | O=C(O)c1ncn(-c2ncc(OCc3c(Cl)cccc3C(F)(F)F)cn2)n1 |  | 
< 1000 | < 1000 | O=C1CN(c2ccc(OCc3c(Cl)cccc3C(F)(F)F)cn2)C(=O)N1 | A′ (A′ = ≥10X) | A′ (A′ = ≥10X)
1000 to 10000 | 1000 to 10000 | O=C1CN(c2ncc(OCc3c(Cl)cccc3C(F)(F)F)cn2)C(=O)N1 | A′ (A′ = ≥10X) | A′ (A′ = ≥10X)
< 1000 | < 1000 | OCCC1(O)CCN(c2ncc(OCc3c(Cl)cccc3Cl)cn2)CC1 | A′ (A′ = ≥10X) | A′ (A′ = ≥10X)
> 10000 | 1000 to 10000 | FC(F)(F)c1cccc(Cl)c1COc1cnc(N2CCC3(CCCNC3)C2)nc1 (stereo not shown) | A′ (A′ = ≥10X) | A′ (A′ = ≥10X)
< 1000 | 1000 to 10000 | CC(C)C1NC(=O)N(c2ccc(OCc3c(Cl)cccc3C(F)(F)F)cc2)C1=O (stereo not shown) | A′ (A′ = ≥10X) | B′ (B′ = ≥5X to <10X)
< 1000 | 1000 to 10000 | O=C1NC2(CCCC2)C(=O)N1c1ccc(OCc2c(Cl)cccc2C(F)(F)F)cc1 | A′ (A′ = ≥10X) | B′ (B′ = ≥5X to <10X)
< 1000 | 1000 to 10000 | CC1(C)NC(=O)N(c2ccc(OCc3c(Cl)cccc3C(F)(F)F)cc2)C1=O | A′ (A′ = ≥10X) | A′ (A′ = ≥10X)
> 10000 | > 10000 | O=C1OC(CO)CN1c1ncc(CCc2c(Cl)cccc2Cl)cn1 (stereo not shown) |  | 
1000 to 10000 | > 10000 | O=C1CNC(=O)N1c1ccc(OCc2c(Cl)cccc2C(F)(F)F)cn1 | B′ (B′ = ≥5X to <10X) | 
> 10000 | > 10000 | O=C1OC(CO)CN1c1ncc(OC(F)(F)c2c(Cl)cccc2Cl)cn1 (stereo not shown) |  | 
< 1000 | < 1000 | Cc1cccc(C(F)(F)F)c1COc1cnc(N2CCC(O)C(F)(F)C2)nc1 (stereo not shown) | C′ (C′ = <5X) | A′ (A′ = ≥10X)
< 1000 | < 1000 | Cc1cccc(C(F)(F)F)c1COc1cnc(N2CCC(O)(CCO)CC2)nc1 | A′ (A′ = ≥10X) | A′ (A′ = ≥10X)
< 1000 | < 1000 | NC(=O)N1CCN(c2ncc(OCc3c(Cl)cccc3C(F)(F)F)cn2)CC1 | A′ (A′ = ≥10X) | A′ (A′ = ≥10X)
1000 to 10000 | 1000 to 10000 | O=C1CN(c2ncc(OCc3c(Cl)cccc3C(F)(F)F)cn2)CC(CO)N1 (stereo not shown) | A′ (A′ = ≥10X) | A′ (A′ = ≥10X)
1000 to 10000 | 1000 to 10000 | NC(=O)C1CN(c2ncc(OCc3c(Cl)cccc3C(F)(F)F)cn2)CCO1 (stereo not shown) | A′ (A′ = ≥10X) | A′ (A′ = ≥10X)
< 1000 | < 1000 | NC(=O)N1CCC(c2ncc(OCc3c(Cl)cccc3C(F)(F)F)cn2)CC1 | A′ (A′ = ≥10X) | A′ (A′ = ≥10X)
< 1000 | 1000 to 10000 | O=C1NC2(CC2)C(=O)N1c1ccc(OCc2c(Cl)cccc2C(F)(F)F)cc1 | A′ (A′ = ≥10X) | A′ (A′ = ≥10X)
1000 to 10000 | 1000 to 10000 | NC(=O)N1CC2(C1)CN(c1ncc(OCc3c(Cl)cccc3C(F)(F)F)cn1)C2 | A′ (A′ = ≥10X) | B′ (B′ = ≥5X to <10X)
1000 to 10000 | 1000 to 10000 | FC(F)(F)c1cccc(Cl)c1COc1cnc(N2CCCC3(CCNC3)C2)nc1 (stereo not shown) | B′ (B′ = ≥5X to <10X) | B′ (B′ = ≥5X to <10X)
< 1000 | < 1000 | Cc1cccc(C(F)(F)F)c1COc1cnc(N2CCN3C(=O)COCC3C2)nc1 (stereo not shown) | A′ (A′ = ≥10X) | A′ (A′ = ≥10X)
1000 to 10000 | 1000 to 10000 | Cc1cccc(OC(F)F)c1COc1ccc(-n2cnc(CO)n2)cc1 | B′ (B′ = ≥5X to <10X) | B′ (B′ = ≥5X to <10X)

EC50 [1] [nM] | EC50 [2] [nM] | SMILES | CFTR G542X ACTIVITY Fold 10 μM G-418 [1] | CFTR R1162X ACTIVITY Fold 10 μM G-418 [2]
1000 to 10000 | 1000 to 10000 | OCc1ncn(-c2ccc(OCc3c(Cl)cccc3OC(F)F)cc2)n1 | A′ (A′ = ≥10X) | B′ (B′ = ≥5X to <10X)
1000 to 10000 | 1000 to 10000 | OCc1ncn(-c2ccc(OCc3c(Cl)cccc3OC(F)(F)F)cc2)n1 | A′ (A′ = ≥10X) | A′ (A′ = ≥10X)
< 1000 | 1000 to 10000 | Cc1cccc(C(F)(F)F)c1COc1ccc(-n2cnc(CN)n2)cc1 | A′ (A′ = ≥10X) | A′ (A′ = ≥10X)
1000 to 10000 | 1000 to 10000 | Cc1cccc(OC(F)F)c1COc1cnc(-n2ccc(CO)n2)nc1 | A′ (A′ = ≥10X) | C′ (C′ = <5X)
1000 to 10000 | 1000 to 10000 | OCc1cn(-c2ncc(OCc3c(Cl)cccc3OC(F)F)cn2)cn1 | A′ (A′ = ≥10X) | B′ (B′ = ≥5X to <10X)
< 1000 | 1000 to 10000 | OCc1ccn(-c2ncc(OCc3c(Cl)cccc3OC(F)(F)F)cn2)n1 | A′ (A′ = ≥10X) | B′ (B′ = ≥5X to <10X)
< 1000 | 1000 to 10000 | Cc1cccc(C(F)(F)F)c1COc1ccc(-n2cnc(CN)c2)nc1 | A′ (A′ = ≥10X) | A′ (A′ = ≥10X)
> 10000 | > 10000 | OCc1ccn(-c2ncc(OC(F)(F)c3c(Cl)cccc3Cl)cn2)n1 |  | 
< 1000 | 1000 to 10000 | OCc1cnn(-c2ncc(OCc3c(Cl)cccc3C(F)(F)F)cn2)n1 | A′ (A′ = ≥10X) | 
> 10000 | > 10000 | O=CN[C@@H](CO)C(=O)Nc1ccc(OCc2c(Cl)cccc2Cl)cn1 |  | B′ (B′ = ≥5X to <10X)
< 1000 | 1000 to 10000 | OCc1cc(-c2ncc(OCc3c(Cl)cccc3C(F)(F)F)cn2)no1 | A′ (A′ = ≥10X) | A′ (A′ = ≥10X)
> 10000 | 1000 to 10000 | NC1(CO)CCN(c2ncc(OCc3c(Cl)cccc3C(F)(F)F)cn2)C1 (stereo not shown) | A′ (A′ = ≥10X) | B′ (B′ = ≥5X to <10X)
1000 to 10000 | 1000 to 10000 | NC(=O)[C@H]1CCN(c2ncc(OCc3c(Cl)cccc3C(F)(F)F)cn2)C1 | A′ (A′ = ≥10X) | A′ (A′ = ≥10X)
1000 to 10000 | 1000 to 10000 | O=C1O[C@@H](CO)CN1c1ccc(OCc2c(Cl)cccc2C(F)(F)F)cn1 | A′ (A′ = ≥10X) | A′ (A′ = ≥10X)
1000 to 10000 | 1000 to 10000 | O=C1O[C@H](CO)CN1c1ccc(OCc2c(Cl)cccc2C(F)(F)F)cn1 | A′ (A′ = ≥10X) | A′ (A′ = ≥10X)
1000 to 10000 | 1000 to 10000 | O=C1CN(c2ncc(OCc3c(Cl)cccc3C(F)(F)F)cn2)C[C@H](CO)N1 | A′ (A′ = ≥10X) | A′ (A′ = ≥10X)
1000 to 10000 | 1000 to 10000 | Cc1cccc(C(F)(F)F)c1COc1cnc(N2C[C@H](O)C[C@H](O)C2)nc1 | A′ (A′ = ≥10X) | A′ (A′ = ≥10X)
< 1000 | < 1000 | C[C@H]1CO[C@@H](CO)CN1c1ncc(OCc2c(Cl)cccc2Cl)cn1 (racemic) | A′ (A′ = ≥10X) | A′ (A′ = ≥10X)
1000 to 10000 | 1000 to 10000 | OC[C@H]1CN(c2ncc(OCc3c(Cl)cccc3Cl)cn2)C[C@@H](C(F)(F)F)O1 (racemic) | A′ (A′ = ≥10X) | A′ (A′ = ≥10X)
1000 to 10000 | 1000 to 10000 | C[C@H]1CO[C@H](CO)CN1c1ncc(OCc2c(Cl)cccc2Cl)cn1 (racemic) | A′ (A′ = ≥10X) | A′ (A′ = ≥10X)
< 1000 | 1000 to 10000 | OC[C@@H]1CN(c2ncc(OCc3c(Cl)cccc3Cl)cn2)C[C@@H](C(F)(F)F)O1 (racemic) | A′ (A′ = ≥10X) | B′ (B′ = ≥5X to <10X)
1000 to 10000 | 1000 to 10000 | CC(=O)N1CCN(c2ncc(OCc3c(C)cccc3C(F)(F)F)cn2)CC1CN (racemic) | C′ (C′ = <5X) | C′ (C′ = <5X)
